US11565022B2, “Therapy for post-traumatic osteoarthritis” (University of Iowa Research Foundation, priority 2015, dated 2023)

System: complex I of the electron transport chain in chondrocytes
Experiment: complex I activity in the presence or absence of amobarbital (FIG. 4)
Format: biochemical

For `CCC1(CCC(C)C)C(=O)NC(=O)NC1=O` [amobarbital], the “biochemical activity of complex I of the electron transport chain” value was “directly inhibits”.
